From publication PMC3842668, “Dual-acting stapled peptides target both HIV-1 entry and assembly” (Retrovirology, 2013) come the findings set out here.

One series deals with T1, HIV-1 CA (Human immunodeficiency virus type 1 group M subtype B, UniProt P12493).
T1 construct: Wild-type HIV-1 CA was overexpressed and purified as previously described; made in house
Nature of the series: Turbidity-based in vitro CA assembly assay. The format is biochemical. The following applies: turbidity at 350 nm; for Effect on CA assembly, turbidity (in words): 50 mM NaPO4 pH 8.0; for initial rate of CA assembly: compound:CA ratio 2:1, mean ± standard deviation from three experiments, DMSO control 216 ± 6.23. The procedure:
The ability of stapled peptides to disrupt CA-CA interactions was also assessed using a turbidity-based in vitro CA assembly assay. This assay is based on the observation that the turbidity of a CA-containing solution increases in proportion to the extent of assembly.
Wild-type HIV-1 CA was overexpressed and purified as previously described. […] Turbidity assays were carried out in triplicate using a Beckman spectrophotometer at a wavelength of 350 nm to monitor HIV-1 in vitro assembly conducted at ambient temperatures. Protein samples were prepared in an assembly buffer [50 mM NaPO4 pH 8.0]. In vitro assembly reactions were prepared with 250 μl of assembly buffer containing 60 μM protein. To catalyze CA assembly 250 μl of an assembly buffer containing 5M NaCl was added. The solution was mixed by agitation and transferred a cuvette for a total delay of 20 seconds. Assembly was monitored every 10 sec for the first min and every min thereafter for a total 10 min. Assembly reactions with stapled peptides were incubated in the assembly buffer for 10 min and then centrifuged for 1 min to separate any insoluble fractions before catalyzing assembly.

The next series concerns HIV-1 pNL4-3. Nature of the series: Virus assembly and release assay, Gag processing. The series is classed as cell-based. The settings on record: 293T cells transfected with pNL4-3, peptide for 16–20 h, ratio of Pr55Gag to p24. As for the experimental part:
This inhibition was specific to HIV-1 as the release of another lentivirus, equine infectious anemia virus (EIAV), was not inhibited. In this study we investigated whether i,i + 7 stapled CAI-derived peptides have any effect on virus release. 293T cells were transfected with the full-length HIV-1 molecular clone pNL4-3, treated with stapled peptides for 16–20 h, and metabolically labeled with [^35S]Met/Cys. The cell- and virus-associated proteins were immunoprecipitated with HIV-Ig.
Figure 6 i + 7 stapled peptides have no effect on HIV-1 release, but impair Gag processing. […] Cells were metabolically labeled with [^35S]Met/Cys for 2 h. Cells were lysed and virions were collected by ultracentrifugation. Cell and virus lysates were immunoprecipitated with HIV-Ig and subjected to SDS-PAGE. Protein band intensities were quantified by phosphorimager analysis, and HIV-1 release was calculated as the amount of virion-associated p24 relative to total (cell- plus virion-associated) Gag. (b) Accumulation of unprocessed Gag in cells was measured by calculating the ratio of Pr55^Gag to p24 in cells. P values were calculated by Student’s t-test, with P < 0.05 considered significant. N = 3, ± SD.
293T cells, plated at 3 × 10^5 cells/well in 12 well plates, were transfected with the HIV-1 molecular clone pNL4-3 [69]. […] One day posttransfection, cells were metabolically labeled with [^35S]Met/Cys for 2 h. The labeled virions were pelleted in an ultracentrifuge, and the virus and cell lysates were immunoprecipitated with pooled sera from HIV-1-infected patients (HIV-Ig, obtained from the ARP) and subjected to SDS-PAGE. Protein band intensities were quantified by phosphorimager analysis, and virus release was calculated as the amount of virion-associated Gag as a fraction of total (cell- plus virion-associated) Gag synthesized during the metabolic labeling period. Accumulation of Pr55^Gag in cells was measured by calculating the ratio of Pr55^Gag to p24 (CA).

The test system of the next series is V120Q/A327P mutant. Nature of the series: Virus replication in PBMC, Env mutant. The series is classed as cell-based, HIV-1. The settings on record: PBMC from three donors, 30 μM peptide, RT activity.
In series [1] the test system is HIV-1 V120Q/A327P Env mutant. The series is classed as cell-based.
Series [2] concerns WT NL4-3. Nature of the series: Spreading virus replication in Jurkat T-cell line, RT activity, WT. The series is classed as cell-based, HIV-1. The settings on record: Jurkat cells transfected with pNL4-3 (WT), 37.5 μM peptide.
The test system of another series is WT HIV-1 (NL4-3). The format is cell-based.
Series [3] relates to WT NL4-3. Nature of the series: Virus replication in PBMC, WT. The series is classed as cell-based, HIV-1. The following applies: PBMC from three donors, 30 μM peptide, RT activity.
Another series deals with HIV-1 pNL4-3 (WT). The format is cell-based.
The target in series [4] is tip of V3 loop (15-mer V3 tip peptide). Nature of the series: ITC binding to 15-mer V3 tip peptide. Further details: species or system HIV-1. The following applies: 90 μM 15-mer V3 tip peptide titrated into 4.5 μM peptide, single-site model. The procedure: (§1) We also used ITC to measure the binding affinity of the stapled peptides to full-length cyclic V3 loop peptide.
(§2) Full-length V3 peptide (Cat# 1840), cyclic V3 peptide (Cat# 1837) and 15-mer overlapping V3 peptides (Cat# 1832, 6282, 6283, 6284, 6285, 6287, 6288, 6289, 6290 and 6291, for amino acid sequence see HIV-1 Subtype B (MN) Env Peptides - Complete Set Cat# 6451) were obtained through the NIH ARP.
(§3) For forward titration, 90 μM full-length V3 peptide, full-length cyclic V3 peptide or 90 μM 15-mer V3 peptides were titrated into 4.5 μM of stapled or linear peptides. Reference measurements were performed by titrating 90 μM full-length V3 peptide, full-length cyclic V3 peptide or 15-mer V3 peptide into buffer without peptide. For reverse titration, 90 μM stapled peptide was titrated into 4.5 μM full-length V3 peptide, full-length cyclic V3 peptide or […]. Reference measurements were performed by titrating 90 μM stapled peptide into buffer without peptide.

The subject of series [5] is N-terminal and C-terminal V3 loop peptides. Nature of the series: ITC binding to N-terminal and C-terminal V3 loop peptides. Further details: species or system HIV-1. The following applies: overlapping 15-mer V3 peptides. The procedure:
as §1, §2, §3

Setting [6] is: 50 μM peptide during 2 h infection, TZM-bl cells, luciferase two days post-infection.

Read-outs that look alike come from different tables or passages of the source. Where a SMILES comes first, the peptide text is derived from it. Bridges are numbered along the chain shown (N, C = ends). [ ]: non-standard residue; d: D form. R8 = C=CCCCCCC[C@@](C)(N)C(=O)O; S5 = C=CCCC[C@](C)(N)C(=O)O

Regarding `CC[C@H](C)[C@H](NC(C)=O)C(=O)N[C@@H](CO)C(=O)N[C@@H](Cc1ccccc1)C(=O)N[C@]1(C)CCCCCCC=CCCC[C@@](C)(C(=O)N[C@@H](CCC(=O)O)C(=O)N[C@@H](CC(=O)O)C(N)=O)NC(=O)[C@H](Cc2ccc(O)cc2)NC(=O)[C@H](Cc2ccc(O)cc2)NC(=O)[C@H](CC(=O)O)NC(=O)[C@H](CC(C)C)NC(=O)[C@H](CC(C)C)NC(=O)[C@H](CCC(=O)O)NC1=O` [NYAD-66] (Ac-ISF[R8]ELLDYY[S5]ED-NH2; staple 4-11), at HIV-1 CA, the “Effect on CA assembly, turbidity (in words)” value (shortened to “Effect on CA assembly”) was “reduced the extent of CA assembly in a dose-dependent manner” and the “initial rate of CA assembly” value was found to be 166 ± 18.91 mOD/min. Further, the “Accumulation of cell-associated Pr55Gag (in words)” value with HIV-1 pNL4-3 was “modest accumulation of cell-associated Pr55^Gag”. Also, the “virus replication (in words)” value in the series on V120Q/A327P mutant is “showed some antiviral activity against the V120Q/A327P mutant”. For the same molecule, the “fold reduction of virus infectivity, V120Q/A327P double mutant” value in series [1] (setting [6]) is “less than 2 fold”. Moreover, in the series on WT NL4-3 [2], the “virus replication (in words)” value is listed as “significantly delayed”. In addition, the “Cell penetration (in words)” value with 293T cells is recorded as “penetrate cells less efficiently than NYAD-1”. Besides, the “fold reduction of virus infectivity, WT” value in the series on WT HIV-1 (NL4-3) (setting [6]) was “around 3 fold”. Besides, the “virus replication (in words)” value in the series on WT NL4-3 [3] is “strongly inhibited replication of WT NL4-3 in PBMC”. In the series with MT-2 cells, the “% toxicity at that dose (number in parenthesis)” value is given as 0% and the “CC 50 (μM ± SD) in MT-2” value was over 115 µM. Further, in the series on HIV-1 pNL4-3 (WT) (293T producer cells treated with 50 μM peptide for two days, RT-normalized virus on TZM-bl, luciferase), the “reduction in infectivity of virions produced from treated cells” value is “four-fold”.
On to `CC[C@H](C)[C@H](NC(C)=O)C(=O)N[C@@H](CO)C(=O)N[C@@H](Cc1ccccc1)C(=O)N[C@]1(C)CCCCCCC=CCCC[C@@](C)(C(=O)N[C@@H](CCC(=O)O)C(=O)N[C@@H](CC(=O)O)C(=O)N[C@@H](CCC(=O)O)C(N)=O)NC(=O)[C@H](Cc2ccc(O)cc2)NC(=O)[C@H](C)NC(=O)[C@H](CCC(N)=O)NC(=O)[C@H](CC(C)C)NC(=O)[C@H](Cc2c[nH]c3ccccc23)NC(=O)[C@H](CCC(=O)O)NC1=O` [NYAD-67] (Ac-ISF[R8]EWLQAY[S5]EDE-NH2; staple 4-11), for which, at HIV-1 CA, the “Effect on CA assembly” value was “did not influence the rate or extent of CA assembly” and the “initial rate of CA assembly” value is 205 ± 18.89 mOD/min. In the series on HIV-1 pNL4-3, the “Accumulation of cell-associated Pr55Gag (in words)” value was “modest accumulation of cell-associated Pr55^Gag”. Besides, the “virus replication (in words)” value in the series with V120Q/A327P mutant was “showed some antiviral activity against the V120Q/A327P mutant”. Besides, in [1], the “fold reduction of virus infectivity, V120Q/A327P double mutant” value was ~ 2.5 fold. Moreover, in series [4], binding was characterised by a dissociation constant (Kd) of 8.92 ± 1.8 µM. Moreover, in the series on WT NL4-3 [2], the “virus replication (in words)” value was “completely blocked”. Also, the “Cell penetration (in words)” value in the series with 293T cells is “penetrate cells less efficiently than NYAD-1”. For the same molecule, in the series with WT HIV-1 (NL4-3), the “fold reduction of virus infectivity, WT” value is reported as over 40 fold. In the series with WT NL4-3 [3], the “virus replication (in words)” value is recorded as “strongly inhibited replication of WT NL4-3 in PBMC”. In the series with MT-2 cells, the “% toxicity at that dose (number in parenthesis)” value was 0% and the “CC 50 (μM ± SD) in MT-2” value is over 107.4 µM. The “reduction in infectivity of virions produced from treated cells” value with HIV-1 pNL4-3 (WT) is given as “two-log reduction in infectivity”. Further, the “binding to N-terminal and C-terminal V3 loop peptides (in words)” value in series [5] is “neither N-terminal nor C-terminal V3 loop peptides bind”.
Turning to “Ac-IRQGPKEPFRDYVDR-NH2 [NYAD-401, reference compound]”, at HIV-1 CA, the “Effect on CA assembly” value is reported as “no observable effect on CA assembly” and the “initial rate of CA assembly” value is listed as 223 ± 32.5 mOD/min.
Consider “Ac-ISF-R8-ELEDYY-S5-ESGS (sidechain bridge or staple) [NYAD-43]”, for which, in the series on MT-2 cells, the “CC 50 (μM ± SD) in MT-2” value is over 106.6 µM.
On the same count and under the same terms, under “Ac-ISF-R8-ELLDYY-S5-EKSGSKD-amide (sidechain bridge or staple) [NYAD-55]” stands over 89.7 µM; under “Ac-ISF-R8-ELLDYY-S5-ESGSKKK-amide (sidechain bridge or staple) [NYAD-44]”, 17.2 ± 1.4 µM.
On the same count and under the same terms, then “Ac-ISF-R8-ELLRYY-S5-R-amide (sidechain bridge or staple) [NYAD-56]”, with 16.4 ± 1.2 µM; and “Ac-ISF-R8-EWLQYY-S5-R-amide (sidechain bridge or staple) [NYAD-33]”, with 9.2 ± 0.26 µM; and “Ac-ISF-R8-QLLDYY-S5-QSGSK-amide (sidechain bridge or staple) [NYAD-46]”, with 10.6 ± 0.6 µM.
Consider Ac-ISFDELLDYYGESGS [NYAD-41], for which the “% FAM” value with 293T cells (FACS, 293T cells, 4 μM FAM-conjugated peptide, 20 h at 37°C, serum-free media, 0.25% Trypsin-EDTA 30 min) turned out to be 1.43%.
As for “Ac-R-R8-FAELLD-S5-YGESGS-amide (sidechain bridge or staple) [NYAD-63]”, in the series on MT-2 cells, the “CC 50 (μM ± SD) in MT-2” value was over 113 µM.
On the same count and under the same terms, then “Ac-RRF-R8-ELLDYY-S5-ESGS-amide (sidechain bridge or staple) [NYAD-62]”, with 15.4 ± 0.2 µM; and “Ac-RSF-R8-RLLDYY-S5-ESGS-amide (sidechain bridge or staple) [NYAD-61]”, with 31.7 ± 1.4 µM.
Still for that read-out and setting: then “Ac-RSFE-R8-LLDYYG-S5-SGS-amide (sidechain bridge or staple) [NYAD-65]”, with over 116 µM; and “Ac-SK-R8-ELLDYY-S5-ESGS-amide (sidechain bridge or staple) [NYAD-64]”, with over 109 µM; and “IRF-R8-QLLNYY-S5-ESGS-amide (sidechain bridge or staple) [NYAD-58]”, with 14.9 ± 1 µM.
In the case of “ISF-R8-ELLNYY-S5-ESGS-amide (sidechain bridge or staple) [NYAD-57]”, the “CC 50 (μM ± SD) in MT-2” value in the series on MT-2 cells is 39.6 ± 4.4 µM.
